From patent publication US12116422B2, “Stapled peptide and use thereof in preparation of drug for treating pancreatic cancer” (Ruijin Hospital, Shanghai Jiao Tong University School of …, priority 2022, dated 2024) come the findings set out here.

Data set [1] deals with T1, ANK domain of N1ICD (Homo sapiens, UniProt P46531). As to the kind of experiment: KD (M). The source says:
Table printed on a drawing sheet, FIG. 1C
(§1) Head of the field: KD (M)
First copying reader's note: Brackets drawn over the sequences join the two S5 residues of each staple; the SAH-mAH2-5 row is printed in lighter (highlighted) type.
Target sequence in this assay (P46531 19-2555 limits assumed): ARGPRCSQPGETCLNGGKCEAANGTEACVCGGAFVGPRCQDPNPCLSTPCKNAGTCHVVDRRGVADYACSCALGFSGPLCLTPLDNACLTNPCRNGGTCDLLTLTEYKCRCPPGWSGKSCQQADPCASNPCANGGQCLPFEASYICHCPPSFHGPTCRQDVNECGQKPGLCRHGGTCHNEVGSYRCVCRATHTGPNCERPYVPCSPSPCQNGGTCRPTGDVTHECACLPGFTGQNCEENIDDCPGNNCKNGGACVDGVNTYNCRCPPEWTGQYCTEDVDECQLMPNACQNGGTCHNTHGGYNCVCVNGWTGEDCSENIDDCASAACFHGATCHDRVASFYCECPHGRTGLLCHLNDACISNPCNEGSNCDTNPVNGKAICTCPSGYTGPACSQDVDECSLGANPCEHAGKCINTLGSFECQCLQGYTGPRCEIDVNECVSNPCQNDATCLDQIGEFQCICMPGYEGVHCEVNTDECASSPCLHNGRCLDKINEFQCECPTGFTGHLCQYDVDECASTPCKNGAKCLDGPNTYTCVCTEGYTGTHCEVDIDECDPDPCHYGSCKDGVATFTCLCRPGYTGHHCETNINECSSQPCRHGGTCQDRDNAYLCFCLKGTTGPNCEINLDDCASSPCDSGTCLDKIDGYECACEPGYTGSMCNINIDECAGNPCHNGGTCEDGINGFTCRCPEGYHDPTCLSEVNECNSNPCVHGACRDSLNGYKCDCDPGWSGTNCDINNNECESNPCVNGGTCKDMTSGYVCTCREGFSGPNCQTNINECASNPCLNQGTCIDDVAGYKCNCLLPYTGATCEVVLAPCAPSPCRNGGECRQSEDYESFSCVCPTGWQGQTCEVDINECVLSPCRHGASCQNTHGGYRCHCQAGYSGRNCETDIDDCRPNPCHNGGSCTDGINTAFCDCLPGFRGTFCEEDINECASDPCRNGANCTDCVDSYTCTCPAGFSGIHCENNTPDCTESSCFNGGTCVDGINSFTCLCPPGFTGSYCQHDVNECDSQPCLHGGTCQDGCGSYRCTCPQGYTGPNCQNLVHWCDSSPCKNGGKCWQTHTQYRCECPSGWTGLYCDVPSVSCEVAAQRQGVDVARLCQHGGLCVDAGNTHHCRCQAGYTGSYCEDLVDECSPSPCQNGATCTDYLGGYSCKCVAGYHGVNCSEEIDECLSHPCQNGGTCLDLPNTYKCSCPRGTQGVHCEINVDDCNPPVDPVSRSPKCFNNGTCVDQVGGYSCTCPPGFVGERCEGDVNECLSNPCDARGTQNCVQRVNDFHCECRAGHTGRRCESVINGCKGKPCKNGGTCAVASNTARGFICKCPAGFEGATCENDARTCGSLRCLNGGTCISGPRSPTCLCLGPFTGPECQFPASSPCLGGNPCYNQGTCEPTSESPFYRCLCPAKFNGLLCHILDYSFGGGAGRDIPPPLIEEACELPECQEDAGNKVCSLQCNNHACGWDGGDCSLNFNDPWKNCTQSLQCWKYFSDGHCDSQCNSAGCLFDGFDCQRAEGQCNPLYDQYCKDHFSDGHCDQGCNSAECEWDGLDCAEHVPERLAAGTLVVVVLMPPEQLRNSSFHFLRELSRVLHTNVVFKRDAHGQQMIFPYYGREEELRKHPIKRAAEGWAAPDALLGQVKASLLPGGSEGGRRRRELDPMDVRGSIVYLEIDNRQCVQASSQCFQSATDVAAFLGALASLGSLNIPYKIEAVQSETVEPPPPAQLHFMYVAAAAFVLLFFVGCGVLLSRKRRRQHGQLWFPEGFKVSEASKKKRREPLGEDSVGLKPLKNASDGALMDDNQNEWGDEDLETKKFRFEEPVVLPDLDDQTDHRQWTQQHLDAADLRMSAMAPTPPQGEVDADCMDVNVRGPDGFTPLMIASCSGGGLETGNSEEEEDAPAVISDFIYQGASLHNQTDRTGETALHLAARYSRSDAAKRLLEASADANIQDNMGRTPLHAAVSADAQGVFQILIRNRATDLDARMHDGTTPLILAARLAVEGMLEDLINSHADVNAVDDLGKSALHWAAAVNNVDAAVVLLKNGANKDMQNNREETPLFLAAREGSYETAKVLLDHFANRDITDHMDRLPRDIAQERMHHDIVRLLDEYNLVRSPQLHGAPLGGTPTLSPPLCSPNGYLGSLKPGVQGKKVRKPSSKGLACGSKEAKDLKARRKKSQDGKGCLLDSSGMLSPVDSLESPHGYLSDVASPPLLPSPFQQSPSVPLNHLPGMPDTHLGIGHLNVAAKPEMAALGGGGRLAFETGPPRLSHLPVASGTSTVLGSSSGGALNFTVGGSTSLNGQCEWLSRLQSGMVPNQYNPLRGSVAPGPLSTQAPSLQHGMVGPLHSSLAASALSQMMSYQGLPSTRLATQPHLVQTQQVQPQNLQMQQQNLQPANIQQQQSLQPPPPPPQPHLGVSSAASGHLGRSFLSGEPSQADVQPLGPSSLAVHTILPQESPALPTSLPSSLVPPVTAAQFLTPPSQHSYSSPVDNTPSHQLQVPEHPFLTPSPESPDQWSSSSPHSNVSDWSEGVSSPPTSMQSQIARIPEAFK

In data set [2] the target is T1, ANK domain of N1ICD. As to the kind of experiment: SPR binding to the ANK domain. How it is done: (§2) Surface plasmon resonance (SPR) analysis was conducted with a BlAcore T200 instrument (GE Healthcare, Pittsburgh, USA) to analyze the binding kinetics between N1DARP or SAH-mAH2-5 and a monitor peptide. Dissociation constants (KD) were calculated according to BIA evaluation software.
(§3) A tertiary structure simulating the N1DARP was analyzed online using I-TASSAR, a hierarchical server for protein structure prediction, and two α-helical peptides (AH1 and AH2) were identified (FIG. 1A, left side). […] Furthermore, in order to identify the essential amino acids that mediated the interaction between mAH2 and ANK, amino acid substitutions were conducted for each amino acid of mAH2 substituted with Ala, which were then subjected to SPR analysis. […] Based on the above evidence, mAH2 was then further modified by inserting molecular staples at 5 positions and denoted as stapled α-helices (SAHs).
Target sequence in this assay (P46531 1872-2126 limits assumed): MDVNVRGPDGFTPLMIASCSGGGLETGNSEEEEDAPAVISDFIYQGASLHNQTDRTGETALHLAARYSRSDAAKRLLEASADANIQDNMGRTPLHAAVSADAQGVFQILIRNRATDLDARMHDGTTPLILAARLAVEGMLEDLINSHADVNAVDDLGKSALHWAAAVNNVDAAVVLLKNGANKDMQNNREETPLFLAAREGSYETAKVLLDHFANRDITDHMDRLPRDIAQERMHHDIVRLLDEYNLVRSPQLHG
(In SPR one partner is held on a chip, and binding of the other changes the refractive index at the surface.)

The test system of a further data set is proteinase K, pepsin. As to the kind of experiment: Incubation with proteinase K and pepsin. Type of data set: in vitro ADME. How it is done: (§4) To examine the physicochemical stability of SAH-mAH2-5, mAH2, Pep2-mAH2, and SAH-mAH2-5 were incubated with proteinase K, pepsin, and mouse plasma.
Data set [3] in a line: Incubation with mouse plasma. It counts as in vitro ADME. The procedure:
as §4

The subject of data set [4] is pancreatic cancer patient-derived organoids. Description: Growth of pancreatic cancer patient-derived organoids (PDOs). Type of data set: cell-based, human. The source says: Four pancreatic cancer tissues were obtained from Ruijin Hospital Affiliated to Shanghai Jiaotong University School of Medicine for organoid culture. All enrolled patients met the following criteria: (i) pathologically diagnosed with pancreatic cancer; (ii) with relatively complete clinicopathological and follow-up data; (iii) without preoperative chemotherapy. Written informed consent was obtained from all relevant patients for the trial, and the study protocol was approved by the Ethics Committee of Ruijin Hospital.
Establishment of patient-derived pancreatic cancer organoids: the normal pancreatic tissues were excised, remaining pancreatic cancer tissues were minced, and enzymatically digested with collagenase (1 mg/ml to 2 mg/ml; Sigma-Aldrich, C9407) in a water bath at 37° C. for 1 h to 2 h. A resulting suspension was filtered through a 100 μm filter to retain tissue debris. The tissue debris was centrifuged at 530 g for 5 min to obtain organoid fractions and resuspended in an RPMI 1640 medium; a resulting suspension was mixed with a cold Matrigel (BD Biocoat, 356234, 10 mg/ml) and then solidified on a pre-warmed 24-well suspension plate at 37° C. for 20 min. After complete gelation, […] of an organoid medium was added to each well, and the plate was transferred to a 37° C./5% humidified CO2 incubator with 2% or ambient O2. […]

A further data set concerns PDOX model of PDAC. As to the kind of experiment: PDO xenograft (PDOX) models in nude mice, tumor volume and survival. Type of data set: in vivo, Nude BALB/c mice. The conditions noted are these: high USP10 and N1ICD expression; 1/2/3/4/5 mg/kg intravenously weekly. How it is done: All animal experimental procedures met institutional ethical requirements and were approved by the Animal Use and Care Committee of Shanghai Jiaotong University School of Medicine. Nude BALB/c mice (male, 4 to 6 weeks old) were purchased from the Chinese Academy of Sciences (Shanghai, China) and kept in a specific pathogen-free facility. For a subcutaneously-injected tumor model, the pancreatic cancer patient-derived organoids (5×10^6 cells/site) were injected subcutaneously into the right side of each mouse. From the first injection, a tumor volume was measured every 7 d using the formula: tumor volume (mm^3)=½(a×b^2), where “a” represented the longest longitudinal diameter and “b” represented the longest transverse diameter.
To evaluate the efficacy of SAH-mAH2-5 in vivo, Capan1 cells (1×10^7 cells/site) and four organoids (5×10^6 cells/site) were subcutaneously injected. One week after inoculation, SAH-CTRL/SAH-mAH2-5 (1/2/3/4/5 mg/kg) and GEM (50 mg/kg) were intravenously injected weekly at the indicated concentrations. Within 35 d from the first injection, the tumor volume was measured every 7 d, and the formula was: tumor volume (mm^3)=½(a×b^2). […]

In another data set the target is T2, USP10-N1ICD interaction (Homo sapiens, UniProt P46531).
T2 construct: endogenous in cells; host or cells: Capan1
T2 sequence (P46531 1754-2555 limits assumed): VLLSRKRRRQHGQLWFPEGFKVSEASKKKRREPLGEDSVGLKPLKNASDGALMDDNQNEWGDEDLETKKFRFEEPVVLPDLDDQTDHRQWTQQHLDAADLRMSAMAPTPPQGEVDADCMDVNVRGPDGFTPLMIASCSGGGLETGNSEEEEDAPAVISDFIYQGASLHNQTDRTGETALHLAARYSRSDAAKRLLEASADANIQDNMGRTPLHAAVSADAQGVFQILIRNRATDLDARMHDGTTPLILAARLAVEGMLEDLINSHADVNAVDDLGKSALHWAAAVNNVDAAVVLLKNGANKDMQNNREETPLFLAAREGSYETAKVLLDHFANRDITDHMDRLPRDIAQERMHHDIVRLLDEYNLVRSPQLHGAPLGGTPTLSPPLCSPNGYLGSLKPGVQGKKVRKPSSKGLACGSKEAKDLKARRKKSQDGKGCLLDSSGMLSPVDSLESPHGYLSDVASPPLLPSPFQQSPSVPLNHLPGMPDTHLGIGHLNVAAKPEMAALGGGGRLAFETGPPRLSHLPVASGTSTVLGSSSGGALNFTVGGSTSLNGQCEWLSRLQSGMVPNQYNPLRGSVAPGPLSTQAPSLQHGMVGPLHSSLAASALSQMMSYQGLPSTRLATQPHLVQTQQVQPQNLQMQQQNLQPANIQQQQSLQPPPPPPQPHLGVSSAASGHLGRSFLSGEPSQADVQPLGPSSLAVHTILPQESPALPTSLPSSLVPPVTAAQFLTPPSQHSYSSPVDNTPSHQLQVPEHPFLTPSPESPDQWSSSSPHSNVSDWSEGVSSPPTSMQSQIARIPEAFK
Description: Immunoprecipitation/Western blot of the USP10-N1ICD interaction in Capan1 cells. It counts as cell-based. The source says:
(§5) The pancreatic cancer cell line Capan1 was purchased from the Cell Bank of the Chinese Academy of Sciences. The cells were STR-identified, negative for mycoplasma, and cultured in the RPMI 1640 supplemented with 10% fetal bovine serum and antibiotics.
(§6) A RIPA buffer was mixed with a cocktail of proteases and phosphatase inhibitors for lysing cell samples. Proteins were separated by 10% SDS-PAGE and transferred to a PVDF membrane. The images were generated by a Tanon 5200 chemiluminescence imaging system (Shanghai Tanon Life Science Instrument Co., Ltd.). The corresponding proteins were detected with primary antibodies and appropriate secondary antibodies. The primary antibodies were as follows: anti-USP10 (CST, #8501, 1:1000 for WB, 1:200 for IP), anti-β-actin (CST, #3700, 1:1000 for WB), and anti-N1ICD (CST, #4147, 1:1000 for WB, 1:200 for IP).
Immunoprecipitation analysis: pancreatic cancer cells transfected with indicated plasmid or lentivirus were collected and lysed for 10 min on ice. A resulting lysate was centrifuged to obtain a supernatant, which was then incubated with appropriate antibodies and protein A/G+agarose (Santa Cruz Biotechnology) overnight at 4° C. A resulting immune complex was washed 4 to 6 times and boiled in a 2×SDS sample buffer for 5 min. […] A resulting binding protein was dissolved in the SDS sample buffer and analyzed by immunoblotting.
(A western blot detects proteins with antibodies after separation by electrophoresis.)

A further data set has as its system N1ICD. Description: Western blot of N1ICD expression, stability and ubiquitination in Capan1 cells. Type of data set: cell-based.
Excerpt: as §5, §6
Immunoprecipitation analysis: pancreatic cancer cells transfected with indicated plasmid or lentivirus were collected and lysed for 10 min on ice. A resulting lysate was centrifuged to obtain a supernatant, which was then incubated with appropriate antibodies and protein A/G+agarose (Santa Cruz Biotechnology) overnight at 4° C. A resulting immune complex was washed 4 to 6 times and boiled in a 2×SDS sample buffer for 5 min. A resulting product was separated and co-precipitated using SDS-PAGE and blotted with specific antibodies. A resulting binding protein was dissolved in the SDS sample buffer and analyzed by immunoblotting.

Data set [5] can be described thus: In vivo safety in healthy mice (serum biochemistry, HE staining). The conditions noted are these: 2 mg/kg intravenously weekly for 4 weeks.
Description: To roughly assess the toxicity of SAH-mAH2-5, healthy BALB/c nude mice (5 weeks) were intravenously injected with SAH-CTRL or SAH-mAH2-5 (2 mg/kg) weekly for 4 weeks. The mice were sacrificed, and organs such as pancreas, lung, spleen, kidney, liver, and colon were extracted, which were then subjected to HE staining to screen morphological abnormalities. In addition, serum was collected for biochemical analysis of alanine aminotransferase (ALT), aspartate aminotransferase (AST), blood urea nitrogen (BUN), and creatinine (CR) by a chemical analyzer TBA-40FR (Toshiba Medical Systems, Japan).
A further data set has as its system ANK1. As to the kind of experiment: SPR binding to the α-helical regions ANK1 to ANK6. The procedure: as §2, §3
The target in data set [6] is T1, ANK domain of N1ICD. Description: KD (M).
Excerpt: Table printed on a drawing sheet, FIG. 1D
as §1
Target sequence in this assay (P46531 19-2555 limits assumed): as the sequence (P46531 19-2555 limits assumed) above
First copying reader's note: Alanine scan of mAH2; the substituted A is printed in lighter type, and the rows mAH2-7, mAH2-9 and mAH2-14 are highlighted in lighter type.
Where the first naming reader finds the target: passage: A tertiary structure of the ANK domain of N1ICD was obtained from a PDB database
The source holds these as a separate data set.

Entries after “also recorded” stand apart in the source; their conditions may differ. Where two headings read alike, the source gives them in different places. Where a SMILES comes first, the peptide text is derived from it. Bridges are numbered along the chain shown (N, C = ends). Where no end group is shown, it is not given here. [ ]: non-standard residue; d: D form. R5 = C=CCCC[C@@](C)(N)C(=O)O

For orientation: Kd means the free concentration of one partner at which half of the binding sites on the other are occupied at equilibrium, for simple one-to-one binding. Take `CC[C@H](C)[C@H](NC(=O)[C@H](CCCNC(=N)N)NC(=O)[C@H](CCCCN)NC(=O)[C@H](C)NC(=O)[C@@H](N)Cc1ccc(O)cc1)C(=O)N[C@]1(C)CCC/C=C\CCC[C@](C)(C(=O)N[C@@H](CO)C(=O)N[C@@H](CCCCN)C(=O)N[C@@H](CCC(N)=O)C(=O)N[C@@H](CC(C)C)C(=O)O)NC(=O)[C@H](CC(C)C)NC(=O)[C@H](CCC(N)=O)NC(=O)[C@H](Cc2ccc(O)cc2)NC1=O` [SAH-mAH2-3] (H-YAKRI[R5]YQL[R5]SKQL-OH; staple (Z) 6-10): the Kd on ANK domain of N1ICD [1] stood at 1.05 nM.
In the case of `CC[C@H](C)[C@H](NC(=O)[C@H](CCCNC(=N)N)NC(=O)[C@H](CCCCN)NC(=O)[C@H](C)NC(=O)[C@@H](N)Cc1ccc(O)cc1)C(=O)N[C@]1(C)CCC/C=C/CCC[C@](C)(C(=O)N[C@@H](CC(C)C)C(=O)O)NC(=O)[C@H](CCCCN)NC(=O)[C@H](CO)NC(=O)[C@H](CC(C)C)NC(=O)[C@H](CC(C)C)NC(=O)[C@H](CCC(N)=O)NC(=O)[C@H](Cc2ccc(O)cc2)NC1=O` [SAH-mAH2-5, stapled α-helix-modified α-helix 2-5] (H-YAKRI[R5]YQLLSK[R5]L-OH; staple (E) 6-13), the “affinity for the ANK domain” value at ANK domain of N1ICD [2] is “strongest binding ability; also recorded: highest affinity for ANK”. In the data set on proteinase K, pepsin, the resistance to proteases result is on record as “significantly enhanced the resistance to proteases”. In addition, the half-life in plasma result in data set [3] is reported as “prolonged the half-life in plasma”. In data set [4] (PDAC with high USP10 and N1ICD expression levels), the organoid growth inhibition entry was “significant organoid growth inhibition”. The inhibition effect result in data set [4] (PDAC-1 and PDAC-3 models with relatively low USP10 and N1ICD expression levels) is recorded as “poor inhibition effect”. In addition, the median survival result in the data set with PDOX model of PDAC is on record as “prolonged median survival”. The USP10-N1ICD interaction result on USP10-N1ICD interaction was “inhibit USP10-N1ICD interaction”. In addition, in the data set on N1ICD (Capan1 cells), the N1ICD deubiquitination result is “inhibited”; the “Notch signaling and N1ICD expression” value is “inhibiting Notch signaling and its N1ICD expression in a time- and dose-dependent manner”. The N1ICD stability entry in the data set on N1ICD (Capan1 cells after cycloheximide (CHX)) is reported as “inhibited N1ICD stability”. For the same compound, in data set [5], the “morphology of major organs (HE staining)” value was “without affecting the liver, lungs, and kidneys and other major normal tissues and organs; also recorded: no morphological changes in major functional organs”; the “serum ALT, AST, BUN and creatinine” value was “no abnormalities in the main indicators of liver and kidney functions”.
For the compound YAKRIFYQLLSKEL [AH2], at ANK domain of N1ICD [2], the “affinity for the ANK domain” value is given as “higher affinity to the ANK domain”. Further, the “interaction with ANK1” value with ANK1 is given as “readily interacted with ANK1”. Besides, at ANK domain of N1ICD [6], the Kd stood at 60.4 nM.
On to YAKRIFYQLLSKQL [mAH2, YAKRIFYQLLSKQL], for which the “affinity for the ANK domain” value at ANK domain of N1ICD [2] is “comparable affinity for ANK”. This compound gave a Kd at ANK domain of N1ICD [1] of 60.4 nM.
